Assay results published in PubChem BioAssay (NCI).
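Cells were grown in 96-well plates and exposed to each compound for 48 hours at five concentrations; endpoints were interpolated linearly between bracketing concentrations, or set to the highest concentration if not reached. TGI is the concentration that stops growth completely.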

Assays:
Assay in all cases: NCI-60 cell line screen, 48 h
UO-31 renal = test system: UO-31 renal
HL-60(TB) leukemia = test system: HL-60(TB) leukemia
COLO 205 colon = test system: COLO 205 colon
T-47D breast = test system: T-47D breast
EKVX NSCLC = test system: EKVX NSCLC
HCT-15 colon = test system: HCT-15 colon
SK-MEL-2 melanoma = test system: SK-MEL-2 melanoma
SNB-75 CNS = test system: SNB-75 CNS
HS 578T breast = test system: HS 578T breast
NCI-H226 lung = test system: NCI-H226 lung
TK-10 renal = test system: TK-10 renal
UACC-257 melanoma = test system: UACC-257 melanoma
HOP-92 NSCLC = test system: HOP-92 NSCLC
HOP-62 NSCLC = test system: HOP-62 NSCLC
OVCAR-3 ovarian = test system: OVCAR-3 ovarian

Compound	TGI (UO-31 renal) [µM]	TGI (HL-60(TB) leukemia) [µM]	TGI (COLO 205 colon) [µM]	TGI (T-47D breast) [µM]	TGI (EKVX NSCLC) [µM]	TGI (HCT-15 colon) [µM]	TGI (SK-MEL-2 melanoma) [µM]	TGI (SNB-75 CNS) [µM]	TGI (HS 578T breast) [µM]	TGI (NCI-H226 lung) [µM]	TGI (TK-10 renal) [µM]	TGI (UACC-257 melanoma) [µM]	TGI (HOP-92 NSCLC) [µM]	TGI (HOP-62 NSCLC) [µM]	TGI (OVCAR-3 ovarian) [µM]
O=c1[nH]c(Nc2nc3ccccc3[nH]2)nc(O)c1Cc1ccccc1	> 100	> 100	> 100	> 100	> 100	> 100	> 100	86.4	> 100	> 100	> 100	> 100	63		
O=c1[nH]c2nc3ccccc3c(=O)n2/c1=C/c1ccco1	> 100	> 100	> 100	> 100	> 100	> 100	> 100	> 100	> 100	> 100	> 100	> 100	> 100	> 100	> 100
Clc1ccc2oc(CCc3ccccc3)nc2c1	> 100	> 100	> 100	> 100	> 100	> 100	> 100	62.8	> 100	> 100	> 100	> 100	> 100	> 100	85.1
N#C/C(C(=S)NCc1ccccc1)=C(/N)N1CCCC1	> 100	> 100	> 100	> 100	> 100	> 100	> 100		> 100	> 100	> 100	> 100	> 100	> 100	> 100
c1ccc(CC2COC(c3cccs3)=N2)cc1 (centres undefined)	> 100	> 100	> 100	> 100	> 100	> 100	> 100	> 100	> 100	> 100	> 100	> 100	> 100	> 100	> 100
N#Cc1nc(C#N)n(S(=O)(=O)c2ccccc2)c1NS(=O)(=O)c1ccccc1	79.6	> 100	> 100	> 100	> 100	> 100	> 31.6	> 100	> 100	> 100	> 100	> 100	> 100	> 100	> 100
CCOC(=O)C1CCCCN1C(=O)Cc1c[nH]c2ccccc12 (centres undefined)		58.6	> 100	> 100	> 100	> 100	> 100	> 100	> 100	> 100	> 100	> 100	> 100	> 100	> 100
Cc1cc2c(cc1C)[n+](=O)c(C(=O)c1ccccc1)c(C(F)(F)F)n2[O-]	4.66	5.73	2.95	5.08	2.97	> 34.4	19.7	10.7	15.1		12.7	14.6	1.46	2.34	3.8
O=c1[nH]nc(-c2ccccc2)n1O	> 100	> 100	> 100	> 100	> 100	> 100	> 100		> 100	> 100	> 100	> 100	> 100	> 100	> 100
Nc1ccc(Nc2cc(=O)[nH]c(=O)[nH]2)cc1Cl	> 100	> 100	> 100	> 100		> 100	> 100		> 100	> 100	> 100	> 100	> 100		> 100
CC(C)/C(Cl)=N/OC(=O)Nc1ccc(Cl)c(Cl)c1	28.6	6.21	3.39	12.2	3.95	5.59	34.1	35.3	54.5	32.2	10.9	27.9	3.2	33.1	6.4
CC1(C)CC(=O)c2c(nc3c4c([nH]c(-c5ccc(Br)cc5)c24)CC(C)(C)C3)C1	> 100	> 100	54.2	> 100	> 100	> 100	> 100	> 100	> 100	> 100	> 100	> 100	> 100	> 100	> 100
CCC1C(c2ccccc2O)c2cc3c(cc2OC1N1CCOCC1)OCO3 (centres undefined)	27	38.8	30.9	28.8	25.4	21.4	30.8	22.7	39.6	36.3	28	31.6	27.6	28.8	25.4
CN(CCCNC(=O)c1cc(-c2ccccc2)nc2ccccc12)CCCNC(=O)c1cc(-c2ccccc2)nc2ccccc12	6.52	4.7	3.14	9.92	17.2	12.2	3.67	5.02	16	10.7	14.9	3.34	9.85	4.13	9.14
CCN(CCN(CC)C(=O)Nc1ccccc1)C(=O)Nc1ccccc1	> 100	> 100	> 100	> 100	> 100	> 100	> 100	> 100	> 100	> 100	> 100	> 100	> 100	> 100	
O=C(O)c1ccccc1N=Nc1c(O)c(S(=O)(=O)O)cc2cc(S(=O)(=O)O)ccc12	> 100	> 100	> 100	> 100	> 100	> 100	> 100	> 100	> 100		> 100	> 100	> 100	> 100	> 100
